{"source": "paper PMC10605010", "about": "“Immunotechniques for the Group Determination of Macrolide Antibiotics Traces in the Environment Using a Volume-Mediated Sensitivity Enhancement Strategy” (Biosensors, 2023)", "key": {"[1]": {"test_system": "coated anti-BSA-cmoCLA(ae) antibody", "experiment": "Direct competitive antibody-coated ELISA (dcELISA) with HRP-aecAZI tracer", "type": "binding, rabbit", "conditions": "1 h", "from_the_text": "(§1) To implement these assay formats, the IgG fraction was first isolated from antiserum via the double precipitation method using caprylic acid and ammonium sulfate, described in detail in [22]. The principle of the assays is based on competition between analyte and enzyme-labeled antigen (HRP-aecAZI) for binding to an antibody coated on the plate (dcELISA) or coupled covalently to Sepharose beads. The latter immunosorbent was used in the immunobeads assay (IBA) and immunofiltration assay (IFA).\ndcELISA plate format. The direct competitive antibody-coated ELISA format was carried out in accordance with the generally accepted procedure. The antibody coated on polystyrene plates could capture the free analyte from the tested sample and enzyme-labeled hapten in a competitive manner. The sequence of manipulations corresponded to those described for a similar format earlier. The role of the volume ratios between the standard (25–275 µL) and HRP-aecAZI (25–175 µL) on the sensitivity of the assay was studied in this work.\nAs a result of interactions between antibody and a number of coating antigens, we have identified a preferred hapten and a rational antigen design for the most sensitive and broad-specific detection. Since the aecAZI hapten conjugated to the carrier via a zero-length arm yielded the desired assay performance, we prepared the same design enzyme-labeled hapten for the direct competitive assay format. […] Thus, a direct competitive assay format was optimized and established based on coated anti-BSA-cmoCLA(ae) antibody and HRP-aecAZI × 3 as a tracer."}, "[2]": {"test_system": "anti-BSA-cmoCLA(ae) antibody", "experiment": "PrG-Ab-ELISA, step-by-step oriented antibody coating via protein G, direct competitive", "type": "binding, rabbit", "conditions": "0.5 h, coating Ab 200 µL, standard/sample 250 µL", "from_the_text": "Another important consideration was the enhancement of the functional activity of antibodies through their oriented immobilization on the surface of polystyrene and its potential impact on the method sensitivity. This was achieved by interacting the adsorbed protein G with the antibody Fc fragments, allowing the antibody-binding fragments to remain spatially accessible. This interaction could be implemented in a step-by-step manner or as a result of self-assembly (Figure 4A). The step-by-step procedure involved the initial formation of a complex between the coated protein G and the antibody (PrG-Ab), followed by a competitive assay step. An alternative self-assembly method implied the competitive interaction of antibody with an analyte (sample) and a tracer in the solution with simultaneous binding to the coated protein G (PrG)."}, "[3]": {"test_system": "Anti-CLA(IgG) coupled to Sepharose beads", "experiment": "Immunobead assay (IBA)", "type": "binding, rabbit", "conditions": "2 h", "method": "Sepharose 4B or Sepharose-CL-2B (Pharmacia, Uppsala, Sweden) were washed with water on a porous glass filter and then squeezed out with a soft press from excess moisture. The washed beads (2 g) were placed in a vial with sodium periodate solution (60 mg in 5 mL H2O) and mixed with a rotary mixer (ELMI Ltd. laboratory equipment, Riga, Latvia) for 45 min. An additional 30 min rotation continued after the addition of ethylene glycol (250 µL). The beads were then washed with water and finally with CBB (pH 9.6) squeezed mildly out. Each of the activated sorbents was placed in a vial for mixing with anti-cmoCLA IgG (10 mg) in 2 mL CBB (pH 9.6) for 48 h at 4 °C. The excess antibody was squeezed out. The beads were then washed with water and placed in a sodium borohydride solution (4 mg/4 mL) for 1 h with occasional shaking. After the final washing with water and PSBT, the resulting immune sorbents were stored at 4 °C in 10 mL of PSBT preserved with Merthiolate (1 mg).\nas §1\nImmunobead assay (IBA). Standard solution of analyte or tested sample in 1–2 mL PBST were accomplished with HRP-aecAZI and immunosorbents Anti-CLA(IgG)-S4B or Anti-CLA(IgG)-SCL2B taken in optimized concentration/volume and incubated for 0.5–3 h periods at a rotary mixer mixing (15 rpm). The beads were then pelleted using centrifugation (5 min, 3400× g) and suspended to the original volume with PBST. After three washing cycles, the bead pellet was suspended with TMB-substrate mixture (200 μL), and 8 M sulfuric acid (50 μL) was added 30 min later to terminate enzymatic reaction. The intensity of the colored product was measured using a plate reader at 450 nm."}, "[4]": {"test_system": "antibody to immunogen BSA-cmoCLA(ae)", "parameters": "method as in doi:10.1039/C9QM00429G", "conditions": "milk; CLA = 100; cited from earlier work"}, "[5]": {"test_system": "antibody to immunogen BSA-cmoERY(ma)", "conditions": "milk; ERY = 100; cited from earlier work"}, "[6]": {"conditions": "coating Ab 100 µL, standard/sample 25 µL"}, "[7]": {"conditions": "coating Ab 100 µL, standard/sample 50 µL"}, "[8]": {"conditions": "coating Ab 100 µL, standard/sample 100 µL"}, "[9]": {"conditions": "coating Ab 100 µL, standard/sample 200 µL"}, "[10]": {"conditions": "coating Ab 100 µL, standard/sample 275 µL"}, "[11]": {"conditions": "coating Ab 200 µL, standard/sample 275 µL"}, "[12]": {"conditions": "coating Ab 300 µL, standard/sample 275 µL"}, "[13]": {"conditions": "Ab volume 10 µL, standard/sample 1000 µL"}, "[14]": {"conditions": "Ab volume 20 µL, standard/sample 2000 µL"}}, "data": [{"compound": "CC[C@H]1OC(=O)[C@H](C)[C@@H](O[C@H]2C[C@@](C)(OC)[C@@H](O)[C@H](C)O2)[C@H](C)[C@@H](O[C@@H]2O[C@H](C)C[C@H](N(C)C)[C@H]2O)[C@](C)(O)C[C@@H](C)C(=O)[C@H](C)[C@@H](O)[C@]1(C)O", "note": "[ERY, Erythromycin]", "values": [{"measurement": "IC10 (LOD)", "setting": "[1]; [6]", "value": 0.04, "unit": "ng/mL"}, {"measurement": "IC20-IC80 (working range)", "setting": "[1]; [6]", "value": "0.097 to 0.907", "unit": "ng/mL"}, {"measurement": "IC50", "setting": "[1]; [6]", "value": 0.31, "unit": "ng/mL"}, {"measurement": "IC10 (LOD)", "setting": "[1]; [7]", "value": 0.04, "unit": "ng/mL"}, {"measurement": "IC20-IC80 (working range)", "setting": "[1]; [7]", "value": "0.085 to 0.565", "unit": "ng/mL"}, {"measurement": "IC50", "setting": "[1]; [7]", "value": 0.23, "unit": "ng/mL"}, {"measurement": "IC10 (LOD)", "setting": "[1]; [8]", "value": 0.008, "unit": "ng/mL"}, {"measurement": "IC20-IC80 (working range)", "setting": "[1]; [8]", "value": "0.037 to 0.400", "unit": "ng/mL"}, {"measurement": "IC50", "setting": "[1]; [8]", "value": 0.14, "unit": "ng/mL"}, {"measurement": "IC10 (LOD)", "setting": "[1]; [9]", "value": 0.011, "unit": "ng/mL"}, {"measurement": "IC20-IC80 (working range)", "setting": "[1]; [9]", "value": "0.029 to 0.253", "unit": "ng/mL"}, {"measurement": "IC50", "setting": "[1]; [9]", "value": 0.098, "unit": "ng/mL"}, {"measurement": "IC10 (LOD)", "setting": "[1]; [10]", "value": 0.024, "unit": "ng/mL"}, {"measurement": "IC20-IC80 (working range)", "setting": "[1]; [10]", "value": "0.043 to 0.184", "unit": "ng/mL"}, {"measurement": "IC50", "setting": "[1]; [10]", "value": 0.091, "unit": "ng/mL"}, {"measurement": "IC10 (LOD)", "setting": "[1]; [11]", "value": 0.002, "unit": "ng/mL"}, {"measurement": "IC20-IC80 (working range)", "setting": "[1]; [11]", "value": "0.008 to 0.119", "unit": "ng/mL"}, {"measurement": "IC50", "setting": "[1]; [11]", "value": 0.034, "unit": "ng/mL"}, {"measurement": "IC10 (LOD)", "setting": "[1]; [12]", "value": 0.006, "unit": "ng/mL"}, {"measurement": "IC20-IC80 (working range)", "setting": "[1]; [12]", "value": "0.012 to 0.119", "unit": "ng/mL"}, {"measurement": "IC50", "setting": "[1]; [12]", "value": 0.040, "unit": "ng/mL"}, {"measurement": "IC10 (LOD)", "setting": "[2]", "value": 0.002, "unit": "ng/mL"}, {"measurement": "IC20-IC80 (working range)", "setting": "[2]", "value": "0.006 to 0.054", "unit": "ng/mL"}, {"measurement": "IC50", "setting": "[2]", "value": 0.020, "unit": "ng/mL"}, {"measurement": "IC10 (LOD)", "setting": "[3]; [13]", "value": 0.003, "unit": "ng/mL"}, {"measurement": "IC20-IC80 (working range)", "setting": "[3]; [13]", "value": "0.006 to 0.056", "unit": "ng/mL"}, {"measurement": "IC50", "setting": "[3]; [13]", "value": 0.018, "unit": "ng/mL"}, {"measurement": "IC10 (LOD)", "setting": "[3]; [14]", "value": 0.001, "unit": "ng/mL"}, {"measurement": "IC20-IC80 (working range)", "setting": "[3]; [14]", "value": "0.003 to 0.057", "unit": "ng/mL"}, {"measurement": "IC50", "setting": "[3]; [14]", "value": 0.012, "unit": "ng/mL"}, {"measurement": "CR", "setting": "[4]", "value": 30.1, "unit": "%"}, {"measurement": "CR", "setting": "[5]", "value": 100, "unit": "%"}]}]}
